Measurements from PMC11989239, “Structure–Property Relationships in Novel Series of Photoswitchable Local Anesthetic Ethercaine Derivatives: Emphasis on Biological and Photophysical Properties” (International Journal of Molecular Sciences, 2025).
Counter-ions that a name gives are not always drawn. Like-named read-outs stand apart in the source and are kept apart here.

What was measured:
[1] = Solubility in water / aqueous solutions; type: physicochemical
[2] = Z-E isomerization half-life by UV/Vis spectrophotometry after 365 nm irradiation; type: physicochemical; settings: for τ1/2 (DMSO), Z-E isomerization half-life: RT, after 365 nm 5 min; for τ1/2 (Aqueous Kolliphor ELP), Z-E isomerization half-life: aqueous 4% Kolliphor ELP solution
Description: As one of the main physicochemical properties of photopharmacological agents, the Z-E half-life was investigated, which determines the stability of the Z-isomer. The Z-E half-lifes were measured using UV/Vis spectrophotometry, converting the compound to the Z-isomer by irradiating with UV light and observing the change in absorption intensity due to reverse Z-E relaxation.
Z-E isomerization half-life was determined using UV/Vis spectroscopy. Solutions were prepared and kept in the dark at RT before the experiment. First, the spectrum in the dark was registered ( PSSdark) , which corresponds to the photostationary state (PSS) with E-isomer predominance. Then, the cuvette with the solution was irradiated with UV light (λ = 365 nm) for 5 min to give the PSS with Z-isomer predominance. The corresponding spectrum was registered ( PSS365nm) . During the subsequent isomerization, the kinetics of changes in the absorption value were recorded at the wavelength of the absorption maximum corresponding to the E-isomer ( λmax(E)) . Then, lnAt/A0 values were calculated using the Equation (1):(1) lnAt/A0=lnAbsPSS(dark)−Abstime/AbsPSS(dark)−AbsPSS(365nm), where AbsPSS(dark) , AbsPSS(365nm), and Abstime are absorbance values at λmax(E) in the dark at the beginning of the experiment, after UV light (λ = 365 nm) irradiation, and at different time points from 0 to 60 min, respectively. Then, a graph was plotted depending on lnAt/A0 values from time, the trend line was calculated, and a first-order rate constant (k) for the thermal back Z-E isomerization reaction was obtained as the slope of the trend line.
For a first-order reaction, half-life t1/2 can be calculated using the Equation (2):(2) t1/2=ln2/k

[3] = In vitro cytotoxicity, MTT test, 24 h incubation; type: cell-based, human; settings: human, dermal fibroblast cells (DF2), DF2 fibroblasts
Description: The culture of dermal fibroblast cells (DF2) was obtained from the collection of the Institute of Cytology of the Russian Academy of Sciences (Saint Petersburg, Russia). The cells were cultured in plastic vials with a cell growth surface of 25 cm^2 (Costar, Richmond, VA, USA) on DMEM/F12 medium with the addition of L-glutamine and 10% fetal bovine serum (FBS) (PanEco, Moscow, Russia). The cells were cultured at 37 °C in a humid atmosphere with a content of 5% CO2 (Binder CO2 incubator, Germany). Cell lines from 3 to 7 passages were used in the work. To conduct experiments to evaluate the cytotoxicity of compounds, cells were sieved into 96-well culture plates at a concentration of 10^5 cells per ml, incubated at 37 °C (humidified atmosphere, 5% carbon dioxide) for 24–28 h. Further, 50 µL of the studied substances was added. The cells were incubated with the compounds for 24 h at 37 °C. Next, the cytotoxic effect of the substances was evaluated by a colorimetric method using an MTT test and visually, using an inverted microscope. The criterion for evaluating the specific activity of the compound was the value of IC50, the concentration at which 50% death of culture cells was noted.

rabbit eye cornea = tested on: rabbit eye cornea; set-up: method as in PMID 35628162; settings: 2% solution of lidocaine, obtained previously, cited from earlier work; for Local Anesthetic Activity (Regnier Index, Min—13, Max—1300) Under Irradiation (λ = 365 nm): UV light irradiation

τ1/2 (DMSO), Z-E isomerization half-life [2] [min]	τ1/2 (Aqueous Kolliphor ELP), Z-E isomerization half-life [2] [min]	solubility ([1]; water) [mg/mL]	Compound	Solubility in aqueous solutions (in words) ([1]; seen in the cytotoxicity test)	IC50 at 24 h [3] [µM]	Local Anesthetic Activity (Regnier Index, Min—13, Max—1300) Under Irradiation (λ = 365 nm) (rabbit eye cornea; listed as lidocaine)	Local Anesthetic Activity (Regnier Index, Min—13, Max—1300) Under Irradiation (λ = 365 nm) (rabbit eye cornea)	Local Anesthetic Activity (Regnier Index, Min—13, Max—1300) In the Dark (rabbit eye cornea; listed as lidocaine)	Local Anesthetic Activity (Regnier Index, Min—13, Max—1300) In the Dark (rabbit eye cornea)
1830	31	–	O=C(CN1CCOCC1)Nc1ccc(/N=N/c2ccccc2)cc1 [Compound 2]	poor solubility in aqueous solutions at concentrations above 200 µM	> 200	–	–	–	–
12	13	> 100	c1csc(/N=N/c2ccc(OCCN3CCOCC3)cc2)n1 [Compound 25a, 2-(4-(2-(N-morpholino)-ethoxy)-phenylazo)-thiazole hydrochloride]	–	200	–	–	–	–
–	–	–	CCN(CC)CC(=O)Nc1c(C)cccc1C [Lidocaine 2%, Lidocaine]	–	> 5000	469 ± 37	469 ± 37 (n = 8)	451 ± 40	451 ± 40 (n = 8)
